Measured values taken from patent publication US11739074B2, “Ras inhibitors” (Revolution Medicines, Inc., priority 2019, dated 2023).
Read-outs that look alike come from different tables or passages of the source.

Key:
AsPC-1 (K-Ras G12D) [1] = experiment: Potency assay: pERK in AsPC-1 cells; type: cell-based; details: Homo sapiens
NCI-H358 (K-Ras G12C) = experiment: CellTiter-Glo cell viability assay, H358; type: cell-based; details: Homo sapiens, NCI-H358, 120 h
In short: (§1)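 Luminescent viability readout on day 5, plates first brought to room temperature for ~30 min; compounds added straight to plated RAS-mutant cells. Values expressed as percent of mean DMSO signal, curves fitted with a four-parameter logistic model.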

AsPC-1 (K-Ras G12D) [2] = experiment: CellTiter-Glo cell viability assay, AsPC-1; type: cell-based; details: Homo sapiens, ASPC1, 120 h
In short: as §1

KRAS G13D = KRAS G13D (Homo sapiens, UniProt P01116+P62937, G13D); experiment: Ras-Raf disruption/FRET/MOA assay, KRAS G13D; type: biochemical
From the text: (§2) Disruption of B-Raf Ras-Binding Domain (BRAF^RBD) Interaction with K-Ras by Compounds of the Invention (Also Called a FRET Assay or an MOA Assay)
(§3) Note—The following protocol describes a procedure for monitoring disruption of K-Ras G12C (GMP-PNP) binding to BRAF^RBD by a compound of the invention. This protocol may also be executed substituting other Ras proteins or nucleotides, such as K-Ras G12D and K-Ras G13D.
(§4) The purpose of this biochemical assay was to measure the ability of test compounds to facilitate ternary complex formation between a nucleotide-loaded K-Ras isoform and Cyclophilin A; the resulting ternary complex disrupts binding to a BRAF^RBD construct, inhibiting K-Ras signaling through a RAF effector.
(§5) In assay buffer containing 25 mM HEPES pH 7.3, 0.002% Tween20, 0.1% BSA, 100 mM NaCl and 5 mM MgCl2, tagless Cyclophilin A, His6-K-Ras-GMPPNP, and GST-BRAF^RBD were combined in a 384-well assay plate at final concentrations of 25 μM, 12.5 nM, and 50 nM, respectively. Compound was present in plate wells as a 10-point 3-fold dilution series starting at a final concentration of 30 μM. After incubation at 25° C. for 3 hours, a mixture of anti-His Eu-W1024 and anti-GST allophycocyanin was then added to assay sample wells at final concentrations of 10 nM and 50 nM, respectively, and the reaction incubated for an additional 1.5 hours. […] Compounds that facilitate disruption of a K-Ras:RAF complex were identified as those eliciting a decrease in the TR-FRET ratio relative to DMSO control wells.

KRAS G12S = KRAS G12S (Homo sapiens, UniProt P01116+P62937, G12S); experiment: Ras-Raf disruption/FRET/MOA assay, KRAS G12S; type: biochemical
From the text: as §2, §3, §4, §5

KRAS G13C = KRAS G13C (Homo sapiens, UniProt P01116+P62937, G13C); experiment: Ras-Raf disruption/FRET/MOA assay, KRAS G13C; type: biochemical
From the text: as §2, §3, §4, §5

KRAS G12V = KRAS G12V (Homo sapiens, UniProt P01116+P62937, G12V); experiment: Ras-Raf disruption/FRET/MOA assay, KRAS G12V; type: biochemical
In short: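 Buffer 25 mM HEPES pH 7.3, 100 mM NaCl, 5 mM MgCl2, 0.1% BSA, 0.002% Tween20; His6-KRAS-GMPPNP 12.5 nM, CypA 25 μM, GST-BRAF^RBD 50 nM; cpd 10-pt 3-fold from 30 μM; 3 h 25° C; then Eu/APC antibodies 1.5 h; TR-FRET ratio vs DMSO.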

KRAS G12D = KRAS G12D (Homo sapiens, UniProt P01116+P62937, G12D); experiment: Ras-Raf disruption/FRET/MOA assay, KRAS G12D; type: biochemical
From the text: as §2, §3, §4, §5

KRAS WT = KRAS WT (Homo sapiens, UniProt P01116+P62937); experiment: Ras-Raf disruption/FRET/MOA assay, KRAS WT; type: biochemical
From the text: as §2, §3, §4, §5

KRAS G12C = KRAS G12C (Homo sapiens, UniProt P01116+P62937, G12C); experiment: Ras-Raf disruption/FRET/MOA assay, KRAS G12C; type: biochemical
From the text: as §2, §3, §4, §5

NRAS G12C = molecular target: T1, NRAS G12C (Homo sapiens, UniProt P01111+P62937, G12C); experiment: Ras-Raf disruption/FRET/MOA assay, NRAS G12C; type: biochemical
T1 construct: His6
From the text: as §2, §3, §4, §5

[3] = ASPC1, read-out: pERK EC50 (AsPC-1 KRAS G12D)
[4] = AsPC-1, K-Ras G12D, 5-day treatment, read-out: AsPC-1 Cell Viability IC50
[5] = disruption of BRAF RBD binding, with Cyclophilin A, read-out: KRAS G13D FRET IC50
[6] = disruption of BRAF RBD binding, with Cyclophilin A, read-out: KRAS G12S FRET IC50
[7] = disruption of BRAF RBD binding, with Cyclophilin A, read-out: KRAS G13C FRET IC50
[8] = disruption of BRAF RBD binding, with Cyclophilin A, read-out: KRAS G12V FRET IC50
[9] = disruption of BRAF RBD binding, with Cyclophilin A, read-out: KRAS G12D FRET IC50
[10] = disruption of BRAF RBD binding, with Cyclophilin A, read-out: KRAS WT FRET IC50
[11] = disruption of BRAF RBD binding, with Cyclophilin A, read-out: KRAS G12C FRET IC50
[12] = NRAS G12C, read-out: NRAS G12C FRET data IC50
[13] = ASPC1, AsPC-1 cells, K-Ras G12D, read-out: pERK EC50 (AsPC-1 KRAS G12D)
[14] = read-out: AsPC-1 Cell Viability IC50

KRAS G12C, sequence (P01116 1-169 isoform P01116-2 G12C limits assumed): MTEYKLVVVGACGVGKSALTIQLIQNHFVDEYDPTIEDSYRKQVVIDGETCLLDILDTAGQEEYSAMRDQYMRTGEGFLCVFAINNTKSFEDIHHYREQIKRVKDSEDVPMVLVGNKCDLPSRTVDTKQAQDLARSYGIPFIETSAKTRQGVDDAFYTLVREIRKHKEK
KRAS G12C, sequence (P62937 whole entry): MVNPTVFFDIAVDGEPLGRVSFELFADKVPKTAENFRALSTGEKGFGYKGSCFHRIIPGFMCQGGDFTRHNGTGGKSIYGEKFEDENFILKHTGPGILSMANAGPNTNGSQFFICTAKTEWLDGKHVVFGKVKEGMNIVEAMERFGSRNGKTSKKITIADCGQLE
KRAS G12V, sequence (P01116 1-169 isoform P01116-2 G12V limits assumed): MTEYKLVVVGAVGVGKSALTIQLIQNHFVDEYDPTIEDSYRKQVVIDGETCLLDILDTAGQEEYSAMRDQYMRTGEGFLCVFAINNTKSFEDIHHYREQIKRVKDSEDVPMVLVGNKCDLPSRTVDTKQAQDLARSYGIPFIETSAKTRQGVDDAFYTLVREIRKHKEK
KRAS G12V, sequence (P62937 whole entry): as the sequence (P62937 whole entry) above
KRAS G12S, sequence (P01116 1-169 isoform P01116-2 G12S limits assumed): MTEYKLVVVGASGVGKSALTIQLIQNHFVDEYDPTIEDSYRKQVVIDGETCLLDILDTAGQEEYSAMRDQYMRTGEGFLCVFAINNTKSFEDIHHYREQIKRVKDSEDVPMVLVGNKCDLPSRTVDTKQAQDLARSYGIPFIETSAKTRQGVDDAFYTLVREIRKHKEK
KRAS G12S, sequence (P62937 whole entry): as the sequence (P62937 whole entry) above
T1 sequence (P01111 whole entry G12C): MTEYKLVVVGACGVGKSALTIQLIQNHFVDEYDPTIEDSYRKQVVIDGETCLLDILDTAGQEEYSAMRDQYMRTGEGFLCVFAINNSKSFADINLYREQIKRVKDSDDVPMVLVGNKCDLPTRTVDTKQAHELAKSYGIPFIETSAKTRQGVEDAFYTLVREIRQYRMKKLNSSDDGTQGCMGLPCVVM
T1 sequence (P62937 whole entry): as the sequence (P62937 whole entry) above
KRAS G12D, sequence (P01116 1-169 isoform P01116-2 G12D limits assumed): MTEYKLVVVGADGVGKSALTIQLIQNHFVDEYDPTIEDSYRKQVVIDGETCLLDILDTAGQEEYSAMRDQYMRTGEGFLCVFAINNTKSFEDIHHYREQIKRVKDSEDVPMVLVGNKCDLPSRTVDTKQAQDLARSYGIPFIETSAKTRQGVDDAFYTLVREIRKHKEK
KRAS G12D, sequence (P62937 whole entry): as the sequence (P62937 whole entry) above
KRAS G13D, sequence (P01116 1-169 isoform P01116-2 G13D limits assumed): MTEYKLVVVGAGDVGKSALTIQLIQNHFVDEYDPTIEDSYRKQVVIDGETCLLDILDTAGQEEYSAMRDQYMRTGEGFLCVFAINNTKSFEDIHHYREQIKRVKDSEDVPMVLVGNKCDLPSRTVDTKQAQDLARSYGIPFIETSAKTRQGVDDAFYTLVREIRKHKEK
KRAS G13D, sequence (P62937 whole entry, the tested form may be a part): as the sequence (P62937 whole entry) above
KRAS WT, sequence (P01116 1-169 isoform P01116-2 limits assumed): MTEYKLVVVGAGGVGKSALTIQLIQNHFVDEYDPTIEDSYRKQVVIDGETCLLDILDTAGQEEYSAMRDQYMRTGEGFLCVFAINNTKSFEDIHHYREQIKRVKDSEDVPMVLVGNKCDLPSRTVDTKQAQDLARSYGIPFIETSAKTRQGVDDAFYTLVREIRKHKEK
KRAS WT, sequence (P62937 whole entry): as the sequence (P62937 whole entry) above
KRAS G13C, sequence (P01116 1-169 isoform P01116-2 G13C limits assumed): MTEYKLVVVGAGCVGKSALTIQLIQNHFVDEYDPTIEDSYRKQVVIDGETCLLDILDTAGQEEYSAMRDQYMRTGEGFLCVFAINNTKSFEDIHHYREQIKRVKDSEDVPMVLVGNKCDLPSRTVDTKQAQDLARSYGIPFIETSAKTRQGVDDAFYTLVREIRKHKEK
KRAS G13C, sequence (P62937 whole entry): as the sequence (P62937 whole entry) above

SMILES | EC50 (AsPC-1 (K-Ras G12D) [1]; [3]) | IC50 (AsPC-1 (K-Ras G12D) [2]; [4]) | IC50 (KRAS G13D; [5]) | IC50 (KRAS G12S; [6]) | IC50 (KRAS G13C; [7]) | IC50 (KRAS G12V; [8]) | IC50 (KRAS G12D; [9]) | IC50 (KRAS WT; [10]) | IC50 (KRAS G12C; [11]) | IC50 (NRAS G12C; [12]) | EC50 (AsPC-1 (K-Ras G12D) [1]; [13]) | also measured
CCn1c(-c2cnccc2COC)c2c3cc(ccc31)-c1cc(O)cc(c1)C[C@H](NC(=O)[C@H](C(C)C)N(C)C(=O)CN(C)C(=O)[C@@H]1CN1)C(=O)N1CCC[C@H](N1)C(=O)OCC(C)(C)C2 [Compound 8] | < 5000 nM | – | – | – | – | – | – | – | – | – | – | IC50 (NCI-H358 (K-Ras G12C); read-out: H358 Cell Viability IC50, NCI-H358, K-Ras G12C, 5-day treatment): 10 to 100 nM; IC50 (AsPC-1 (K-Ras G12D) [2]; read-out: AsPC-1 Cell Viability IC50, AsPC-1, K-Ras G12D, 5-day treatment): 1000 to 10000 nM; IC50 (KRAS G13D): 100 to 1000 nM; IC50 (KRAS G12S): 10 to 100 nM; IC50 (KRAS G13C): 10 to 100 nM; IC50 (KRAS G12V): 100 to 1000 nM; IC50 (KRAS G12D): 100 to 1000 nM; IC50 (KRAS WT): 100 to 1000 nM; IC50 (KRAS G12C): 10 to 100 nM; IC50 (NRAS G12C; NRAS G12C FRET data IC50, NRAS G12C): 10 to 100 nM
CCn1c(-c2cnccc2COC)c2c3cc(ccc31)-c1cc(O)cc(c1)C[C@H](NC(=O)[C@@H](CNC1=NCCO1)C(C)C)C(=O)N1CCC[C@H](N1)C(=O)OCC(C)(C)C2 [Compound 29] | – | 1000 to 10000 nM | 1000 to 10000 nM | 1000 to 10000 nM | 1000 to 10000 nM | 1000 to 10000 nM | 1000 to 10000 nM | 1000 to 10000 nM | 1000 to 10000 nM | 1000 to 10000 nM | – | IC50 (NCI-H358 (K-Ras G12C); NCI-H358, K-Ras G12C, 5-day treatment, read-out: H358 Cell Viability IC50): 1000 to 10000 nM
CCn1c(-c2cccnc2[C@H](C)OC)c2c3cc(ccc31)-c1cc(O)cc(c1)C[C@H](NC(=O)[C@H](C(C)C)N1CC[C@]3(CCN(C[C@@H]4CN4)C3)C1=O)C(=O)N1CCC[C@H](N1)C(=O)OCC(C)(C)C2 [Compound 176] | – | 1000 to 10000 nM | 10 to 100 nM | 10 to 100 nM | 10 to 100 nM | 100 to 1000 nM | 100 to 1000 nM | 10 to 100 nM | 10 to 100 nM | 10 to 100 nM | < 5000 nM | –
CCn1c(-c2cccnc2[C@H](C)OC)c2c3cc(ccc31)-c1cc(O)cc(c1)C[C@H](NC(=O)[C@H](C(C)C)N1CC[C@]3(CCCN(C(=O)[C@@H]4CN4)C3)C1=O)C(=O)N1CCC[C@H](N1)C(=O)OCC(C)(C)C2 [Compound 192] | – | 1000 to 10000 nM | 1000 to 10000 nM | 100 to 1000 nM | 100 to 1000 nM | 10 to 100 nM | 100 to 1000 nM | 100 to 1000 nM | < 10 nM | < 10 nM | < 5000 nM | –
CCn1c(-c2cccnc2[C@H](C)OC)c2c3cc(ccc31)-c1cc(O)cc(c1)C[C@H](NC(=O)[C@H](C(C)C)N1CC[C@@]3(CCN(C[C@H]4CN4)C3)C1=O)C(=O)N1CCC[C@H](N1)C(=O)OCC(C)(C)C2 [Compound 193] | – | 1000 to 10000 nM | 10 to 100 nM | 100 to 1000 nM | 10 to 100 nM | 1000 to 10000 nM | 100 to 1000 nM | 10 to 100 nM | 10 to 100 nM | 10 to 100 nM | < 5000 nM | –
CCn1c(-c2cccnc2[C@H](C)OC)c2c3cc(ccc31)-c1cc(O)cc(c1)C[C@H](NC(=O)[C@H](C(C)C)N1CCC3(CCN(C(=O)[C@H]4CN4)CC3)C1=O)C(=O)N1CCC[C@H](N1)C(=O)OCC(C)(C)C2 [Compound 196] | – | 1000 to 10000 nM | 10 to 100 nM | 100 to 1000 nM | 10 to 100 nM | 100 to 1000 nM | 100 to 1000 nM | 10 to 100 nM | < 10 nM | < 10 nM | < 5000 nM | –
CCn1c(-c2cccnc2[C@H](C)OC)c2c3cc(ccc31)-c1cc(O)cc(c1)C[C@H](NC(=O)[C@H](C(C)C)N1CC[C@@]3(CCCN(C(=O)[C@H]4CN4)C3)C1=O)C(=O)N1CCC[C@H](N1)C(=O)OCC(C)(C)C2 [Compound 199] | – | 1000 to 10000 nM | 100 to 1000 nM | 100 to 1000 nM | 100 to 1000 nM | 100 to 1000 nM | 100 to 1000 nM | 100 to 1000 nM | 100 to 1000 nM | 100 to 1000 nM | < 5000 nM | –
CCn1c(-c2cccnc2[C@H](C)OC)c2c3cc(ccc31)-c1cc(O)cc(c1)C[C@H](NC(=O)[C@H](C(C)C)N1CC[C@]3(CCCN(C(=O)[C@H]4CN4)C3)C1=O)C(=O)N1CCC[C@H](N1)C(=O)OCC(C)(C)C2 [Compound 200] | – | 1000 to 10000 nM | 100 to 1000 nM | 10 to 100 nM | 10 to 100 nM | 10 to 100 nM | 100 to 1000 nM | 100 to 1000 nM | < 10 nM | < 10 nM | < 5000 nM | –
CCn1c(-c2cnccc2COC)c2c3cc(ccc31)-c1cc(O)cc(c1)C[C@H](NC(=O)[C@H](C(C)C)N(C)C(=O)CN(C)C(=O)[C@H]1CN1C(C)=O)C(=O)N1CCC[C@H](N1)C(=O)OCC(C)(C)C2 [Example 34, (2R)-1-acetyl-N-(2-(((2S)-1-(((6^3S,4S)-1^1-ethyl-2^5-hydroxy-1^2-(4-(methoxymethyl)pyridin-3-yl)-10,10-dimethyl-5,7-dioxo-6^1,6^2,6^3,6^4,6^5,6^6-hexahydro-1^1H-8-oxa-1(5,3)-indola-6(1,3)-pyridazina-2(1,3)-benzenacycloundecaphane-4-yl)amino)-3-methyl-1-oxobutan-2-yl)(methyl)amino)-2-oxoethyl)-N-methylaziridine-2-carboxamide] | < 5000 nM | – | 100 to 1000 nM | 10 to 100 nM | 10 to 100 nM | 100 to 1000 nM | 100 to 1000 nM | 100 to 1000 nM | 10 to 100 nM | 10 to 100 nM | – | IC50 (AsPC-1 (K-Ras G12D) [2]; [14]): 1000 to 10000 nM
CCn1c(-c2cnccc2COC)c2c3cc(ccc31)-c1cc(O)cc(c1)C[C@H](NC(=O)[C@H](C(C)C)N(C)C(=O)CN(C)C(=O)[C@H]1CN1C(=O)OC)C(=O)N1CCC[C@H](N1)C(=O)OCC(C)(C)C2 [Example 38, methyl (2R)-2-((2-(((2S)-1-(((6^3S,4S)-1^1-ethyl-2^5-hydroxy-1^2-(4-(methoxymethyl)pyridin-3-yl)-10,10-dimethyl-5,7-dioxo-6^1,6^2,6^3,6^4,6^5,6^6-hexahydro-1^1H-8-oxa-1(5,3)-indola-6(1,3)-pyridazina-2(1,3)-benzenacycloundecaphane-4-yl)amino)-3-methyl-1-oxobutan-2-yl)(methyl)amino)-2-oxoethyl)(methyl)carbamoyl)aziridine-1-carboxylate] | < 5000 nM | – | 100 to 1000 nM | 10 to 100 nM | 10 to 100 nM | 100 to 1000 nM | 100 to 1000 nM | 100 to 1000 nM | 10 to 100 nM | 10 to 100 nM | – | IC50 (AsPC-1 (K-Ras G12D) [2]; [14]): 1000 to 10000 nM
